Several values for one entry are separate records, joined by “and”; a condition that tells them apart may be missing. Equal values may be shown once.
Columns and labels:
tryptamine binding site = conditions: cited from earlier work; for binding to tryptamine site (in words): human cortical membrane preparation, Mousseau & Butterworth 1994
neuronal cell lines = conditions: Tanaka et al. 1998; cited from earlier work
mice [1] = assay: Observation of health and behavior of tryptamine-treated mice; type: in vivo
Procedure: (§1) An Alzheimer's disease mouse model was obtained by using intravenous injections of male mice at 8 weeks or age- and sex-matched mice with 1-500 micrograms of tryptamine every second day for at least 2.5 weeks. In one embodiment, mice are injected with 50 micrograms of tryptamine for 4 months. However, the duration of treatment, intervals between injections and concentrations of tryptamine can be successfully varied. Control mice are injected with phosphate-buffered saline.
The tryptamine-treated mice appear to be healthy in comparison to the control mice. The treated mice are clean and fat.

mice [2] = assay: Running on a narrow stick, tryptamine-treated mice; type: in vivo; conditions: individual mouse
Procedure: as §1
Behavioral tests with control and tryptamine-treated mice. Behavioral assays with control and tryptamine-treated mice included tests for movement or coordination, sense of balance, orientation, and loss of interest. The behavioral tests in which the tryptamine-treated mice were tested included (a) a test of stable sitting (following 3 months of treatment), and (b) a test of running on a narrow stick (following 3, 4 and 6 months of the treatment). […] As shown in the testing this behavior of mice is age-dependent. […] The data obtained regarding behavior of the control and tryptamine-treated mice are in good agreement with later signs of Alzheimer's disease compared with normal signs of aging (Source: Alzheimer's Disease: early warning signs and diagnostic resources. The Junior League of NYC, Inc, 1988).
The model mice were made to run on a white metallic 80 cm stick having a diameter of 1 cm stick and placed 30 cm over the surface of a platform. Data in TABLE I are: (a) lag time (time that the mice were sitting at one end of the stick before beginning to run); (b) run time; and (c) the % of the stick that the mice successfully completed.

mice [3] = assay: Brain histology of tryptamine-treated mice (Congo Red, Gallyas silver staining); type: in vivo; conditions: intravenous, every second day, at least 2.5 weeks of treatment
Procedure: as §1
Immunochemical assays with control and tryptamine-treated mice. Following tryptamine treatment, the brains of the treated model mice and the control untreated mice were routinely fixed; sectioned, stained and analyzed microscopically, using commonly used well-established methods. The mouse brains were examined for Alzheimer's-like manifestations.
These manifestations were not found in the control mice.
FIG. 5 is a set of micrographs showing Congo Red staining and birefringence of sagittal sections from brains of tryptamine-treated mice. […] FIG. 6 is a set of micrographs showing silver staining of Alzheimer's neurofibrillary changes in the brain sections of tryptamine-treated mice.

[4] = tested on: human neuroblastoma SH SY5Y cell line; assay: Cultivation of SH SY5Y cells with TrpRS inhibitors; type: cell-based; conditions: for cell survival after cultivation with inhibitor: 50-100 μg/ml, 5 days, initial density 1×10^3 on 10-cm dishes
Procedure: The involvement of TrpRS inhibitors in neurofibrillary tangles formation was tested in the human neuroblastoma SH SY5Y cell line expressing tau. Tanaka et al., FEBS Lett. 426: 248-254 (1998). This cloned line comprises two morphologically distinct cell types: predominantly neuroblastic (bearing short neurites) and epithelial-like (lacking neurites). Biedler et al., Cancer Res. 33: 2643-2652 (1973). SH SY5Y cells were grown in 25 cm^2 flasks (TPP, Switzerland) in 5% CO2 at 37° C. in RPMI 1640 medium supplemented with 10% fetal calf serum, 100 u/ml penicillin, 100 μg/ml streptomycin, 0.25 μg/ml amphoterycin and 2 mM glutamine. The neuron/axon lines were isolated after seeding microscopically verified single […] cells.
Continuous treatment with lower concentrations of the inhibitors led to accumulation of large flattened, tightly substrate adherent epithelial-like cells lacking neurites, while the majority of neuroblasts died.
TrpRS was mainly localized in axons and to a less extent in the neuronal body and dendrites (wrs, FIG. 1e). […] In some sublines, however no neuroblasts were observed during 12 months cultivation without inhibitors (low panel, FIG. 1f).

TrpRS = assay: Western blot of TrpRS in detergent-insoluble fraction of treated cells; type: cell-based, human; conditions: 6C10/C9 blot
Procedure: The involvement of tau and TrpRS in tryptamine-induced phenotypes was tested in extracts of control and treated cells. Triton extraction was performed as follows: Cells were lysed in 0.1 M Hepes buffer, pH 6.9, 0.5% Triton X100, 1 mM MgCl2, 0.1 mM EDTA, 2 mM EGTA, 1 mM DTT, 1 mM PMSF, 0.4 mg/ml aprotinin, 0.1 mg/ml antipain, leupeptin, pepstatin, and hemastatin, 0.1 μM okadaic acid, 10 mM sodium ortovanadate, and 50 mM sodium fluoride for 20 min in situ at room temperature. The detergent-insoluble fraction was collected with scraper and washed in the same buffer excluding inhibitors of phosphatases. The detergent-insoluble fraction was then solubilized in SDS-sample buffer at 100° C. for 5 min, and spun. […]
In the Western blot, both human recombinant ˜54 kDa and bovine ˜60 and ˜40-42 kDa (well-characterized proteolytic fragments) TrpRS reacted with 6C10/C9 and polyclonal antibodies (FIG. 3b), while poorly with 9D7. The main form and an additional high molecular weight TrpRS were induced in detergent-insoluble cytoskeleton by tryptamine treatment (right panel, FIG. 3c), whereas no difference was detected between acute-treated and pretreated cells (left and middle panels, FIG. 3c) when total extracts were analyzed. In the cytoskeleton of both treated and control cells, TrpRS was detected at a lower molecular weight than the cytoplasmic TrpRS (FIG. 3c). […]

SH SY5Y cells = assay: Tryptamine treatment of epithelial-enriched and neuron-axon SH SY5Y cells, staining and electron microscopy; type: cell-based, human; conditions: 20-100 μg/ml tryptamine for 6-60 days, electron microscopy
Procedure: To examine control epithelial cells, which were not pretreated with inhibitors, neuroblastic and epithelial-enriched cells were separated from one another by exploiting a marked difference in adhesive properties. Biedler et al., Cancer Res. 33: 2643-2652 (1973). The weakly adherent neuroblasts were washed out with trypsin. The selected epithelial-enriched and tryptamine-differentiated neuron-axon cells were treated with 20-100 μg/ml tryptamine for 6-60 days and then stained. […] (Mouse anti-human PHF-tau, clone AT8 against epitope containing phosphorylated Ser202 was obtained from Innogenetics (Ghent, Belgium).)
To test whether TrpRS and tau co-localize in neurofibrillary tangles, fluorescent double labeling with AT8 and anti-TrpRS was performed. In acute-treated cells, the proteins were co-localized both in I-NFT-like encircled nuclei (FIG. 2e, f, i, and j) and E-NFT-like manifestations (FIG. 2g). In the perikarya of the control pretreated or untreated epithelial cells, few if any such formations were labeled (FIG. 2h and FIG. 2k). The staining is specific. The staining was absent in the control specimens probed with secondary antibodies (FIG. 2l).
To test whether tryptamine-induced manifestations are associated with neurofilaments, the cells were prepared either as a suspension (FIG. 2m) or as a monolayer and then analyzed by electron microscopy. […]

mice [5] = assay: Stability (balance) on narrow 1-cm stick; type: in vivo
Procedure: FIG. 7 is a set of tables and graphs showing measurements of the treated mice's behavior. The control and tryptamine-treated model mice were put on a narrow 1-cm diameter metallic stick. The time that mice balanced on the stick was measured in seconds. 66% of control versus 10% of treated mice kept on the stick for more than 6 seconds in the first experiment and 66% of control versus 20% of treated were for more than 13 seconds in the second experiment. Thus, the model mice were 6.6 times less balanced or coordinated than control.
FIG. 7 is a set of tables and graphs showing measurements of the treated mice's stability The control and tryptamine-treated model mice were put on a narrow 1 cm diameter metallic stick. The time of their presence on the stick was measured in seconds. […] Thus, the model mice are 6.6 times less balanced than control.

## NCCc1c[nH]c2ccc(O)cc12 [5-hydroxytryptamine]
Tryptamine binding site; relative to tryptamine
  lower binding to tryptamine site than tryptamine: > 100

## COc1ccc2[nH]cc(CCN)c2c1 [5-methoxytryptamine]
Tryptamine binding site
  binding to tryptamine site (in words): higher binding to tryptamine site compared with 5-hydroxytryptamine

## CC(N)Cc1ccccc1 (stereo not shown) [amphetamine]
Tryptamine binding site
  binding to tryptamine site (in words): higher affinity for the (+)-stereo isomer compared with (−)-isomer

## C#CCN(C)[C@H](C)Cc1ccccc1 [deprenyl]
Tryptamine binding site
  binding to tryptamine site (in words): higher affinity for the (+)-stereo isomer compared with (−)-isomer

## C=C1[C@@H](O)[C@@H]2O[C@]3(CC[C@H](/C=C/[C@@H](C)[C@@H]4CC(C)=C[C@@]5(O[C@H](C[C@@](C)(O)C(=O)O)CC[C@H]5O)O4)O3)CC[C@H]2O[C@@H]1[C@@H](O)C[C@H](C)[C@H]1O[C@@]2(CCCCO2)CC[C@H]1C [okadaic acid]
Neuronal cell lines
  effect on tau and neurofibrillary tangles: results only in tau hyperphosphorylation, but not neurofibrillary tangles

## NCCc1c[nH]c2ccccc12 [tryptamine]
Tryptamine binding site
  binding to tryptamine site (in words): most potent inhibitor
Mice [1]; four months of treatment
  toxic effect: do not show any toxic effect
Mice [1]; in contrast to control mice
  aggressive behavior: do not show aggressive behavior
Mice [2]; 80 cm stick, 1 cm diameter
  Run time: 2 seconds and 0 seconds (7×) and 10 seconds and 17 seconds
Mice [2]; 80 cm stick, 1 cm diameter, time sitting at one end before beginning to run
  Lag time: 50 seconds and 47 seconds and 11 seconds and 17 seconds and 13 seconds and 40 seconds and 3 seconds (2×) and 9 seconds and 15 seconds
Mice [2]; % of the stick successfully completed
  % of the way: 40% and 0% (7×) and 20% and 50%
Mice [3]
  Alzheimer's-like manifestations in brain sections: Senile plaques, neurofibrillary tangles, and neuropil threads and fibrils were detected
[4]
  cell survival after cultivation with inhibitor: all cells have died
[4]; SH SY5Y
  relative toxicity for neuroblasts and epithelial cells: more toxic for neuroblasts than for epithelial cells
[4]; continuous treatment with lower concentrations, then cultivation without inhibitors
  neurodifferentiation of epithelial cells: induces neurodifferentiation of the epithelial cells
TrpRS
  expression of cytoskeleton TrpRS forms: induces high expression of cytoskeleton TrpRS forms
SH SY5Y cells
  neurofibrillary tangles in treated cells: numerous neurofibrillary tangles were found
Mice [5]; first experiment, control 66%
  % of treated mice kept on the stick for more than 6 seconds: 10%
Mice [5]; second experiment, control 66%
  % of treated mice kept on the stick for more than 13 seconds: 20%
Mice [5]; treated versus control mice
  times less balanced than control: 6.6 times

## N[C@@H](Cc1c[nH]c2ccccc12)C(=O)O [tryptophan]
Tryptamine binding site
  binding to tryptamine site (in words): dramatically lower binding to trypatmine site than tryptamine

## N[C@H](CO)Cc1c[nH]c2ccccc12 [tryptophanol]
[4]
  cell survival after cultivation with inhibitor: all cells have died

Reference: patent publication US20030059797A1, “Animal model of and test for Alzheimer's disease” (priority 1999, published 2003)
